Measurements reported in paper PMC6129194 (Bioorganic & medicinal chemistry, 2018).

What was measured:
[1] = cited from earlier work
[2] = cited from earlier work; remark: listed apart in the source
MDCK-mdr1 cells = assay: MDCK-mdr1 monolayer permeability assay; conditions: % transported apical to basal; 10 μM, 1 h, 37 °C, pH 7.4

CN1CCN(c2ncnc3c2nc(-c2ccccc2Cl)n3-c2ccc(Cl)cc2)CC1 [compound 5]
human liver microsome stability [1]: good
solubility in acidic media [2]: good

CC(C)CS(=O)(=O)N1CCN(c2ncnc3c2nc(-c2ccccc2Cl)n3-c2ccc(Cl)cc2)CC1 [compound 15, 8-(2-Chlorophenyl)-9-(4-chlorophenyl)-6-{4-[(2-methylpropyl)sulfonyl]piperazin-1-yl}-9H-purine]
MDCK-mdr1 A to B (MDCK-mdr1 cells): < 1%

N=C(Nc1ccc(F)cc1)N1CCN(c2ncnc3c2nc(-c2ccccc2Cl)n3-c2ccc(Cl)cc2)CC1 [compound 28, 4-[8-(2-Chlorophenyl)-9-(4-chlorophenyl)-9H-purin-6-yl]-N-(4-fluorophenyl)piperazine-1-carboximidamide]
MDCK-mdr1 A to B (MDCK-mdr1 cells): < 1%

O=C(OCC1CCC1)N1CCN(c2ncnc3c2nc(-c2ccccc2Cl)n3-c2ccc(Cl)cc2)CC1 [compound 26, Cyclobutylmethyl 4-[8-(2-Chlorophenyl)-9-(4-chlorophenyl)-9H-purin-6-yl]piperazine-1-carboxylate]
MDCK-mdr1 A to B (MDCK-mdr1 cells): < 1%
